Reference: patent US20230310416A1, “SUSPENSION OF TRIAZOLE ANTIFUNGAL DRUG FOR ATOMIZER” (SHANGHAI FRONTIER HEALTH PHARMACEUTICAL TECHNOLOGY CO., LTD, priority 2020, published 2023)

Test system: bleomycin-induced idiopathic pulmonary fibrosis in mice
Assay: Mouse model of pulmonary fibrosis induced by bleomycin, inhalation versus oral administration
Type: in vivo, ICR mice
Settings: once a day for 22 days
Protocol: In order to investigate the efficacy of itraconazole suspension of the present invention by inhalation administration, a mouse model of pulmonary fibrosis induced by bleomycin 2 mg/kg/mouse was established and compared with that by oral administration.
Test animals: ICR mice: SPF grade, body weight 22-24 g, male.
Test drugs: itraconazole suspension prepared in Example 3
Model establishment: 2 mg/kg of bleomycin hydrochloride for injection was sprayed into the respiratory tract of each mouse to induce pulmonary fibrosis, 4 weeks later, a mouse pulmonary fibrosis model was established.
Animal grouping: Mice were randomly divided into 4 groups, namely a blank control group, a model group, an itraconazole inhalation group, in which 2.5 mg/kg was inhaled for 3 minutes (2.5 mg/kg Inhalation group) and an itraconazole oral group, in which 15 mg/kg was orally administrated(15 mg/kg Oral group). The drugs were administered once a day for 22 consecutive days from the fifth day after modeling.
Detecting indexes: the mice were sacrificed after administration, the trachea was separated, the left lung was ligated, the bronchoalveolar lavage (BAL) was performed, the bronchoalveolar lavage fluid (BALF) was taken for white cell count and classification count, after the lung tissue was fixed with formalin, paraffin embedding, sectioning, H & E staining and Masson’s staining were carried out. The contents of transforming growth factor (TGF- β 1), mouse type I collagen (Col I) and hydroxyproline in lung tissue in supernatant of the BALF were detected by a kit.

SMILES: CCC(C)n1ncn(-c2ccc(N3CCN(c4ccc(OCC5COC(Cn6cncn6)(c6ccc(Cl)cc6Cl)O5)cc4)CC3)cc2)c1=O (stereo not drawn) [itraconazole]
- Collagen deposition in lung tissue (2.5 mg/kg inhalation): 62759.9±17865.8
- Content of Col I in BALF (2.5 mg/kg inhalation): 1.64 ± 0.64 ng/mL
- Content of TGF-β1 in BALF (2.5 mg/kg inhalation): 32.13 ± 25.97 pg/mL
- Content of hydroxyproline in lung tissue (2.5 mg/kg inhalation): 526.7 ±66.0 µg/g tissue
- Number of neutrophils in BALF (2.5 mg/kg inhalation): 12.08±5.85 1 × 10^4 cell/ml
- Total number of white blood cells in BALF (2.5 mg/kg inhalation): 26.13 ±5.93 1 × 10^4 cell/ml
- Collagen deposition in lung tissue (15 mg/kg oral): 166628.8±35819.8
- Content of Col I in BALF (15 mg/kg oral): 1.91 ± 0.86 ng/mL
- Content of TGF-β1 in BALF (15 mg/kg oral): 24.79 ± 12.72 pg/mL
- Content of hydroxyproline in lung tissue (15 mg/kg oral): 583.8 ±96.6 µg/g tissue
- Number of neutrophils in BALF (15 mg/kg oral): 13.71 ±7.58 1 × 10^4 cell/ml
- Total number of white blood cells in BALF (15 mg/kg oral): 29.13±10.99 1 × 10^4 cell/ml
